Data taken from the NIST ThermoML archive (doi:10.1016/j.jct.2005.04.017).

Experiment: mn = molality of the nth substance listed, in mol/kg
Conditions: Liquid, Capillary tube (Ostwald / Ubbelohde) method

O=[N+]([O-])[O-].O=[N+]([O-])[O-].[Ni+2] [nickel(II) nitrate] + O
viscosity [mPa·s]
Conditions | 100 kPa | 10000 kPa | 20000 kPa | 30000 kPa
297.86 K, m1 = 1.824 | 1.671 | 1.672 | 1.672 | 1.673
297.86 K, m1 = 2.246 | 1.973 | 1.973 | 1.974 | 1.974
297.98 K, m1 = 0.608 | 1.078 | 1.077 | 1.077 | 1.078
298.43 K, m1 = 0.218 | 0.9454 | 0.9468 | 0.9471 | 0.9482
298.64 K, m1 = 0.951 | 1.193 | 1.194 | 1.194 | 1.194
298.65 K, m1 = 0.153 | 0.9231 | 0.9246 | 0.9251 | 0.9261
298.65 K, m1 = 0.288 | 0.9601 | 0.9606 | 0.961 | 0.962
299.24 K, m1 = 0.05 | 0.884 | 0.8839 | 0.8843 | 0.8845
299.76 K, m1 = 1.368 | 1.348 | 1.348 | 1.349 | 1.35
309.84 K, m1 = 2.246 | 1.537 | 1.539 | 1.542 | 1.545
321.54 K, m1 = 0.05 | 0.5771 | 0.579 | 0.5797 | 0.582
322.46 K, m1 = 2.246 | 1.225 | 1.231 | 1.236 | 1.241
322.56 K, m1 = 0.153 | 0.5821 | 0.5872 | 0.592 | 0.5938
322.56 K, m1 = 0.288 | 0.6103 | 0.6122 | 0.613 | 0.6145
323.46 K, m1 = 0.608 | 0.6691 | 0.6724 | 0.6754 | 0.6781
323.67 K, m1 = 0.951 | 0.7503 | 0.7533 | 0.7564 | 0.7595
323.74 K, m1 = 0.218 | 0.5854 | 0.5895 | 0.5944 | 0.5968
324.76 K, m1 = 1.824 | 1.026 | 1.031 | 1.036 | 1.04
326.78 K, m1 = 1.368 | 0.8295 | 0.8341 | 0.8376 | 0.8422
330.84 K, m1 = 2.246 | 1.072 | 1.078 | 1.082 | 1.089
338.46 K, m1 = 1.368 | 0.703 | 0.7074 | 0.7123 | 0.7174
347.43 K, m1 = 0.288 | 0.4289 | 0.4346 | 0.4376 | 0.4422
347.65 K, m1 = 0.05 | 0.3939 | 0.3949 | 0.3964 | 0.4013
347.82 K, m1 = 2.246 | 0.843 | 0.8486 | 0.8534 | 0.8621
347.94 K, m1 = 0.218 | 0.4152 | 0.4194 | 0.4228 | 0.426
348.89 K, m1 = 0.153 | 0.401 | 0.4057 | 0.4091 | 0.4122
349.46 K, m1 = 0.951 | 0.5292 | 0.5331 | 0.5374 | 0.5411
349.76 K, m1 = 0.608 | 0.4664 | 0.4708 | 0.4742 | 0.4779
349.76 K, m1 = 1.368 | 0.6103 | 0.6146 | 0.6194 | 0.6253
349.76 K, m1 = 1.824 | 0.722 | 0.728 | 0.7335 | 0.738
364.21 K, m1 = 2.246 | 0.6918 | 0.698 | 0.705 | 0.7104
372.46 K, m1 = 0.153 | 0.3059 | 0.3101 | 0.314 | 0.3166
372.48 K, m1 = 0.218 | 0.3134 | 0.3179 | 0.3212 | 0.3248
372.49 K, m1 = 1.368 | – | 0.4771 | 0.4824 | 0.4869
372.54 K, m1 = 0.05 | 0.2921 | 0.2949 | 0.2984 | 0.3015
372.84 K, m1 = 1.824 | 0.5558 | 0.5612 | 0.5672 | 0.5721
373.06 K, m1 = 0.288 | – | 0.3246 | 0.3275 | 0.3318
373.82 K, m1 = 0.608 | – | 0.36 | 0.3643 | 0.3681
375.48 K, m1 = 2.246 | – | 0.619 | 0.6251 | 0.6322
375.81 K, m1 = 0.951 | 0.395 | 0.399 | 0.4042 | 0.407
394.58 K, m1 = 2.246 | – | 0.5162 | 0.5211 | 0.5279
394.68 K, m1 = 0.05 | – | 0.2391 | 0.2416 | 0.2449
396.43 K, m1 = 0.951 | – | 0.3329 | 0.3365 | 0.3403
397.82 K, m1 = 0.153 | – | 0.2441 | 0.2474 | 0.2509
398.42 K, m1 = 0.288 | – | 0.2566 | 0.2608 | 0.2633
398.49 K, m1 = 0.608 | – | 0.289 | 0.293 | 0.2967
398.61 K, m1 = 0.218 | – | 0.249 | 0.2532 | 0.2549
399.46 K, m1 = 1.368 | – | 0.3743 | 0.3789 | 0.384
399.46 K, m1 = 1.824 | – | 0.4393 | 0.4445 | 0.4496
412.58 K, m1 = 2.246 | – | 0.4452 | 0.4505 | 0.4568
416.89 K, m1 = 1.368 | – | 0.327 | 0.3311 | 0.3363
421.95 K, m1 = 0.05 | – | 0.1929 | 0.1958 | 0.1985
422.49 K, m1 = 1.824 | – | 0.3682 | 0.3726 | 0.378
422.81 K, m1 = 0.288 | – | 0.2142 | 0.2168 | 0.2198
422.83 K, m1 = 0.951 | – | 0.2731 | 0.2767 | 0.2807
423.73 K, m1 = 0.608 | – | 0.2402 | 0.2435 | 0.2468
424.57 K, m1 = 0.153 | – | 0.1989 | 0.203 | 0.205
424.57 K, m1 = 0.218 | – | 0.2053 | 0.2081 | 0.2119
426.84 K, m1 = 2.246 | – | 0.4007 | 0.4063 | 0.4124
426.89 K, m1 = 1.368 | – | 0.3051 | 0.3095 | 0.3134
446.79 K, m1 = 2.246 | – | 0.3515 | 0.3578 | 0.3622
447.26 K, m1 = 1.368 | – | 0.2684 | 0.2714 | 0.276
448.24 K, m1 = 1.824 | – | 0.3116 | 0.3159 | 0.3211
448.96 K, m1 = 0.288 | – | 0.1818 | 0.1845 | 0.1878
449.28 K, m1 = 0.153 | – | 0.1703 | 0.1741 | 0.1764
449.46 K, m1 = 0.608 | – | 0.205 | 0.2085 | 0.2114
449.48 K, m1 = 0.951 | – | 0.2309 | 0.2347 | 0.2382
449.65 K, m1 = 0.05 | – | 0.1611 | 0.1639 | 0.1661
449.72 K, m1 = 0.218 | – | 0.175 | 0.1778 | 0.1807
471.51 K, m1 = 0.153 | – | 0.151 | 0.1534 | 0.1565
472.15 K, m1 = 0.05 | – | 0.142 | 0.1447 | 0.1468
472.46 K, m1 = 2.246 | – | 0.304 | 0.3094 | 0.314
473.12 K, m1 = 1.824 | – | 0.2716 | 0.2768 | 0.2808
473.87 K, m1 = 0.288 | – | 0.1591 | 0.1628 | 0.1645
474.24 K, m1 = 0.218 | – | 0.1536 | 0.156 | 0.1592
474.83 K, m1 = 0.608 | – | 0.1805 | 0.1834 | 0.186
475.84 K, m1 = 1.368 | – | 0.23 | 0.2342 | 0.2375
